How the values were obtained:
purified HLA DRB1*0101 = biological target: T1, purified HLA DRB1*0101 (Homo sapiens, UniProt P01903+P01911, A100R/D57E/F55L/F60I/F76Y/I96L/L162R/M171V/P40L/Q125E/R42F/V115G/Y59C); assay: HLA-DR radioligand binding inhibition assay, DRB1*0101; settings: IC50 nM purified HLA DRB1 *0101, purified HLA DRB1*0101
T1 construct: purified from EBV transformed homozygous cell lines or single MHC allele transfected 721.221, C1R, or fibroblast lines; made in house
In short: (§1)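 The probe, 1-10 nM radiolabeled peptide, was incubated with 1 μM to 1 nM HLA-DR for 2 days in the presence of protease inhibitors.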

purified HLA DRB1*0301 = biological target: T2, purified HLA DRB1*0301 (Homo sapiens, UniProt P01903+P01911, A100K/A102G/A103R/A169T/F55Y/I96L/K41T/L162R/M171V/P40S/Q125H/Q178H/Q39Y/R42S/S66N/T106N/T262R/W38E/Y61H); assay: HLA-DR radioligand binding inhibition assay, DRB1*0301; settings: IC50 nM purified HLA DRB1 *0301, purified HLA DRB1*0301
T2 construct: purified from EBV transformed homozygous cell lines or single MHC allele transfected 721.221, C1R, or fibroblast lines; made in house
In short: as §1

purified HLA DRB1*0401 = biological target: T3, purified HLA DRB1*0401 (Homo sapiens, UniProt P01903+P01911, A100K/A169T/F76Y/I96L/K127E/L162R/M171V/N62H/P40V/Q125Y/R42H/S133A/S149N/S66Y/V115G/V209L/W38E); assay: HLA-DR radioligand binding inhibition assay, DRB1*0401; settings: IC50 nM purified HLA DRB1 *0401, purified HLA DRB1*0401
T3 construct: purified from EBV transformed homozygous cell lines or single MHC allele transfected 721.221, C1R, or fibroblast lines; made in house
In short: as §1

purified HLA DRB1*0404 = biological target: T4, purified HLA DRB1*0404 (Homo sapiens, UniProt P01903+P01911, A100R/A169T/F76Y/I96L/K127E/L162R/M171V/N62H/P40V/Q125Y/R42H/S133A/S149N/S66Y/V209L/W38E); assay: HLA-DR radioligand binding inhibition assay, DRB1*0404; settings: IC50 nM purified HLA DRB1 *0404, purified HLA DRB1*0404
T4 construct: purified from EBV transformed homozygous cell lines or single MHC allele transfected 721.221, C1R, or fibroblast lines; made in house
In short: as §1

purified HLA DRB1*0405 = biological target: T5, purified HLA DRB1*0405 (Homo sapiens, UniProt P01903+P01911, A100R/A169T/D86S/F76Y/I96L/K127E/L162R/M171V/N62H/P40V/Q125Y/R42H/S133A/S149N/S66Y/V115G/V209L/W38E); assay: HLA-DR radioligand binding inhibition assay, DRB1*0405; settings: IC50 nM purified HLA DRB1 *0405, purified HLA DRB1*0405
T5 construct: purified from EBV transformed homozygous cell lines or single MHC allele transfected 721.221, C1R, or fibroblast lines; made in house
In short: as §1

purified HLA DRB1*0701 = biological target: T6, purified HLA DRB1*0701 (Homo sapiens, UniProt P01903+P01911, A100R/A102G/A103Q/D57E/D86V/E43K/F76Y/K127E/L162R/M171V/P40G/Q125H/Q99D/R33Q/R42Y/R54Q/S133A/S66F/T210M/V115G/Y107V/Y59L/Y89S); assay: HLA-DR radioligand binding inhibition assay, DRB1*0701; settings: IC50 nM purified HLA DRB1 *0701, purified HLA DRB1*0701
T6 construct: purified from EBV transformed homozygous cell lines or single MHC allele transfected 721.221, C1R, or fibroblast lines; made in house
In short: as §1

purified HLA DRB1*0802 = biological target: T7, purified HLA DRB1*0802 (Homo sapiens, UniProt P01903+P01911, A100R/A103L/A169T/F76Y/H45Y/I96F/K41T/L162R/M171V/P40S/Q125H/Q178H/Q39Y/Q99D/R218S/R42G/S66Y/V115G/W38E); assay: HLA-DR radioligand binding inhibition assay, DRB1*0802; settings: IC50 nM purified HLA DRB1 *0802, purified HLA DRB1*0802
T7 construct: purified from EBV transformed homozygous cell lines or single MHC allele transfected 721.221, C1R, or fibroblast lines; made in house
Procedure: (§2) Instead, wells of an opaque white 96-well Optiplate (Packard) are coated with 3 μg (100 μl@ 30 μg/ml) of HLA-specific antibody (Ab) that “capture” complexes of radiolabeled MHC and unlabeled peptide transferred from the molecular binding assay plate in 100 μl of 0.05% NP40/PBS. After a 3-hour incubation period, the supernatant is decanted and scintillation fluid (Microscint 20) added. Captured complexes are then measured on a microplate scintillation and luminescence counter (TopCount NXTTM; Packard).
(§3) HLA-DR purification. Fifteen distinct HLA-DR molecules were used in quantitative assays to measure the binding of peptides to solubilized HLA-DR molecules. […] Briefly, columns of inactivated Sepharose CL4B and Protein A Sepharose were used as pre-columns. HLA-DR molecules were captured by passage of lysates over LB3.1 monoclonal antibody (anti-HLA-DRA) columns. Antibody columns were washed with 10 mM Tris-HCL, pH8.0 with 1% (v/v) NP-40, followed by PBS containing 0.4% (w/v) n-octylglucoside. […] The pH was reduced to 8.0 and the eluates were concentrated by centrifugation in Centriprep 30 concentrators at 2000 rpm (Amicon, Beverly, Mass.).
(§4) Briefly, 1-10 nM of radiolabeled peptide was co-incubated for 2 days at either room temperature or 37° C. with 1 μM to 1 nM purified HLA-DR molecules in the presence of a cocktail of protease inhibitors. Assays were performed at various pH conditions, ranging from pH 4 to pH 7. […] After incubation, the percentage of HLA-DR-bound radioactivity is determined by capturing HLA-DR/peptide complexes on Optiplates (Packard Instruments, Meriden, Conn.) coated with the LB3.1 antibody and determining bound counts per minute using the TopCount microscintillation counter (Packard Instruments). […] Competitor peptides are tested in 2-4 complete, independent experiments, at concentrations ranging from […].

purified HLA DRB1*0901 = biological target: T8, purified HLA DRB1*0901 (Homo sapiens, UniProt P01903+P01911, A100R/A103E/D57H/D86V/F55Y/F60I/F76Y/I96F/K127E/L162R/M171V/P40D/Q125H/Q99R/R33Q/R42F/S133A/S66N/T210M/V115G/W38K/Y107V/Y59G/Y89S); assay: HLA-DR radioligand binding inhibition assay, DRB1*0901; settings: IC50 nM purified HLA DRB1 *0901, purified HLA DRB1*0901
T8 construct: purified from EBV transformed homozygous cell lines or single MHC allele transfected 721.221, C1R, or fibroblast lines; made in house
Procedure: as §2
HLA-DR purification. Fifteen distinct HLA-DR molecules were used in quantitative assays to measure the binding of peptides to solubilized HLA-DR molecules. […] Briefly, columns of inactivated Sepharose CL4B and Protein A Sepharose were used as pre-columns. HLA-DR molecules were captured by passage of lysates over LB3.1 monoclonal antibody (anti-HLA-DRA) columns. Antibody columns were washed with 10 mM Tris-HCL, pH8.0 with 1% (v/v) NP-40, followed by PBS containing 0.4% (w/v) n-octylglucoside.
Briefly, 1-10 nM of radiolabeled peptide was co-incubated for 2 days at either room temperature or 37° C. with 1 μM to 1 nM purified HLA-DR molecules in the presence of a cocktail of protease inhibitors. Assays were performed at various pH conditions, ranging from pH 4 to pH 7. […] After incubation, the percentage of HLA-DR-bound radioactivity is determined by capturing HLA-DR/peptide complexes on Optiplates (Packard Instruments, Meriden, Conn.) coated with the LB3.1 antibody and determining bound counts per minute using the TopCount microscintillation counter (Packard Instruments).

purified HLA DRB1*1101 = biological target: T9, purified HLA DRB1*1101 (Homo sapiens, UniProt P01903+P01911, A100R/A169T/A87E/I96F/K41T/L162R/M171V/P40S/Q125H/Q178H/Q39Y/Q99D/R42S/S66Y/T262R/V115G/W38E); assay: HLA-DR radioligand binding inhibition assay, DRB1*1101; settings: IC50 nM purified HLA DRB1 *1101, purified HLA DRB1*1101
T9 construct: purified from EBV transformed homozygous cell lines or single MHC allele transfected 721.221, C1R, or fibroblast lines; made in house
T9 sequence (P01903 26-254, other chains not shown): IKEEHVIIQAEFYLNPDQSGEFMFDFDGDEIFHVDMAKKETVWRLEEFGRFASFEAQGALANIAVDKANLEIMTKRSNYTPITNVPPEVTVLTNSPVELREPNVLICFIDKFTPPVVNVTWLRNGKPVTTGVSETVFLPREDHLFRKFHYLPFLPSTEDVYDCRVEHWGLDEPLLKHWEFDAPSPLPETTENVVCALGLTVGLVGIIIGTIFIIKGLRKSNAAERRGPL
In short: as §1

purified HLA DRB1*1201 = biological target: T10, purified HLA DRB1*1201 (Homo sapiens, UniProt P01903+P01911, A100R/A169T/D57E/D86V/F55L/H45Y/K41T/L162R/M171V/P40S/Q125H/Q178H/Q39Y/Q99D/R42G/S66L/T262R/V114A/V67L/W38E/Y59H/Y61H/Y89S); assay: HLA-DR radioligand binding inhibition assay, DRB1*1201
T10 construct: purified from EBV transformed homozygous cell lines or single MHC allele transfected 721.221, C1R, or fibroblast lines; made in house
Procedure: as §2, §3, §4

purified HLA DRB5*0101 = biological target: T11, purified HLA DRB5*0101 (Homo sapiens, UniProt P01903+Q30154); assay: HLA-DR radioligand binding inhibition assay, DRB5*0101; settings: IC50 nM purified HLA DRB5 *0101, purified HLA DRB5*0101
T11 construct: purified from EBV transformed homozygous cell lines or single MHC allele transfected 721.221, C1R, or fibroblast lines; made in house
In short: as §1

purified HLA DRB1*1501 = biological target: T12, purified HLA DRB1*1501 (Homo sapiens, UniProt P01903+P01911); assay: HLA-DR radioligand binding inhibition assay, DRB1*1501
T12 construct: purified from EBV transformed homozygous cell lines or single MHC allele transfected 721.221, C1R, or fibroblast lines; made in house
In short: as §1

purified HLA DRB4*0101 = biological target: T13, purified HLA DRB4*0101 (Homo sapiens, UniProt P01903+P13762, G164S); assay: HLA-DR radioligand binding inhibition assay, DRB4*0101; settings: IC50 nM purified HLA DRB4 *0101, purified HLA DRB4*0101
T13 construct: purified from EBV transformed homozygous cell lines or single MHC allele transfected 721.221, C1R, or fibroblast lines; made in house
In short: as §1

purified HLA DRB1*1302 = biological target: T14, purified HLA DRB1*1302 (Homo sapiens, UniProt P01903+P01911, A100E/A169T/K41T/L162R/M171V/P40S/Q125H/Q178H/Q39Y/Q99D/R42S/S66N/T262R/V115G/W38E/Y61H); assay: HLA-DR radioligand binding inhibition assay, DRB1*1302
T14 construct: purified from EBV transformed homozygous cell lines or single MHC allele transfected 721.221, C1R, or fibroblast lines; made in house
In short: as §1

purified HLA DRB3*0101 = biological target: T15, purified HLA DRB3*0101 (Homo sapiens, UniProt P01903+P79483); assay: HLA-DR radioligand binding inhibition assay, DRB3*0101; settings: IC50 nM purified HLA DRB3 *0101, purified HLA DRB3*0101
T15 construct: purified from EBV transformed homozygous cell lines or single MHC allele transfected 721.221, C1R, or fibroblast lines; made in house
Procedure: as §2, §3, §4

Compound | IC50 (purified HLA DRB1*0101) | IC50 (purified HLA DRB1*0301) | IC50 (purified HLA DRB1*0401) | IC50 (purified HLA DRB1*0404) | IC50 (purified HLA DRB1*0405) | IC50 (purified HLA DRB1*0701) | IC50 (purified HLA DRB1*0802) | IC50 (purified HLA DRB1*0901) | IC50 (purified HLA DRB1*1101) | IC50 (purified HLA DRB1*1201) | IC50 (purified HLA DRB5*0101) | IC50 (purified HLA DRB1*1501) | IC50 (purified HLA DRB4*0101) | IC50 (purified HLA DRB1*1302) | IC50 (purified HLA DRB3*0101)
CC[C@H](C)[C@H](NC(=O)[C@@H](NC(=O)[C@@H]1CCCN1C(=O)[C@H](C)N)[C@@H](C)O)C(=O)N[C@@H](CCCNC(=N)N)C(=O)NCC(=O)N[C@@H](CC(=O)O)C(=O)N1CCC[C@H]1C(=O)N[C@@H](CCC(=O)O)C(=O)N[C@@H](CS)C(=O)N[C@@H](Cc1c[nH]cn1)C(=O)N[C@@H](CC(C)C)C(=O)N[C@@H](Cc1ccccc1)C(=O)N[C@@H](Cc1ccc(O)cc1)C(=O)N[C@@H](CC(N)=O)C(=O)O [Peptide 9019.0022] | 4030 nM | 31 nM | 1640 nM | 2910 nM | > 20000 nM | 16800 nM | > 20000 nM | > 20000 nM | > 20000 nM | 16900 nM | > 20000 nM |  |  |  | 
CC(C)C[C@H](NC(=O)[C@H](Cc1c[nH]cn1)NC(=O)[C@@H](N)CS)C(=O)N[C@@H](Cc1ccccc1)C(=O)N[C@@H](Cc1ccc(O)cc1)C(=O)N[C@@H](CC(N)=O)C(=O)N[C@@H](CCC(=O)O)C(=O)N[C@@H](CCC(N)=O)C(=O)N[C@@H](CCC(N)=O)C(=O)N[C@@H](CCC(=O)O)C(=O)N[C@@H](C)C(=O)N[C@@H](CCCNC(=N)N)C(=O)NCC(=O)N[C@H](C(=O)N[C@@H](Cc1c[nH]cn1)C(=O)O)C(C)C [Peptide 9019.0023] |  |  |  |  | > 20000 nM | > 20000 nM | > 20000 nM | > 20000 nM | > 20000 nM |  | > 20000 nM | > 20000 nM | 5310 nM |  | 
CC[C@H](C)[C@H](NC(=O)[C@H](CS)NC(=O)[C@H](CC(C)C)NC(=O)[C@@H](N)CCCCN)C(=O)N[C@@H](Cc1ccc(O)cc1)C(=O)N[C@H](C(=O)N[C@@H](CC(=O)O)C(=O)N[C@@H](CC(N)=O)C(=O)N[C@@H](CO)C(=O)N[C@H](C(=O)N[C@@H](CCCNC(=N)N)C(=O)N1CCC[C@H]1C(=O)N[C@@H](CCC(=O)O)C(=O)N[C@@H](CCC(=O)O)C(=O)N[C@@H](CC(C)C)C(=O)O)[C@@H](C)CC)[C@@H](C)O [Peptide 9019.0159] |  | 64 nM | 95 nM |  | 3170 nM | 1100 nM |  | 15900 nM | > 20000 nM | > 20000 nM | 4620 nM | 25 nM | 33 nM | 879 nM | > 20000 nM
